Assays:
[1] = system: HPV18; assay: HPV DNA replication assay (Southern blot) in transfected primary keratinocytes, HPV18; assay type: cell-based, human papillomavirus
Procedure: (§1) Cloned viral genomes were cleaved with restriction enzymes to separate viral and vector sequences. The genomes were religated at a concentration of 5 μg/ml to favor intramolecular circularization. Prior to electroporation, J2 feeder cells were removed from the keratinocytes by versene treatment and the HFKs were collected by trypsinization. HFKs (1×10^6) were electroporated with 2 μg of re-circularized viral genomic DNA using the Amaxa Nucleofector II electroporator and the Human Keratinocyte Nucleofector Kit. The Amaxa program optimized for cell survival was used according to the manufacturer's specifications. Cells were removed from the cuvettes immediately following electroporation, and seeded onto 10 cm plates containing irradiated feeder cells and F-medium, in the presence or absence of 10 μM Y-27632, as indicated. At various times post-transfection, low molecular weight DNA was isolated by a modified Hirt extraction procedure (Ustav et al., EMBO J. 10:449-457, 1991). For Southern blot analysis, the isolated DNA was linearized with EcoRI or BamHI, depending on cloning site for each viral genome, and DpnI, to digest any unreplicated input DNA. DNA fragments were separated by agarose gel electrophoresis followed by Southern blot hybridization. A ^32P-labeled probe was synthesized from the isolated viral genomic DNA (purified from the vector sequence) by the random prime method and used in Southern hybridizations.

[2] = system: HPV6; assay: HPV DNA replication assay (Southern blot) in transfected primary keratinocytes, HPV6; assay type: cell-based, human papillomavirus; settings: 10 μM Y-27632, FIG. 6
Procedure: as §1, with “A ^32P-labeled probe was synthesized from the isolated viral genomic DNA (purified from the vector sequence) by the random prime method and used in Southern hybridizations.” left out

[3] = system: HPV31; assay: HPV31 genome copy number in CIN612 9E cells; assay type: cell-based, human papillomavirus; settings: 10 μM Y-27632, FIG. 8
Procedure: (§2) The 9E and W12 (20863 clone) cell lines were cultured in F-media on irradiated J2 feeder cells. For the Y-27632 experiments they were cultured in F-medium with or without 10 μM Y-27632 and continually passed for the times indicated.
as §1, with “DNA fragments were separated by agarose gel electrophoresis followed by Southern blot hybridization. A ^32P-labeled probe was synthesized from the isolated viral genomic DNA (purified from the vector sequence) by the random prime method and used in Southern hybridizations.” left out

[4] = system: CIN612 9E cells; assay: Growth of CIN1-derived cell line CIN612 9E; assay type: cell-based, human; settings: 10 μM Y-27632; 44 days; FIG. 7
Procedure: (§3) The 9E and […] (20863 clone) cell lines were cultured in F-media on irradiated J2 feeder cells. For the Y-27632 experiments they were cultured in F-medium with or without 10 μM Y-27632 and continually passed for the times indicated.

[5] = system: primary human foreskin keratinocytes; settings: cited from earlier work
[6] = system: telomeres; assay: Telomere length assay (real-time PCR); assay type: cell-based, human
Procedure: Genomic DNA was extracted from cells and the average telomere length was assessed by a modified method of the real-time PCR-based telomere assay described previously (Cawthon et al., Nucleic Acids Res. 30: e47, 2002; Cawthon, Nucleic Acids Res. 37: e21, 2009). Briefly, the telomere repeat copy number to single gene copy number (T/S) ratio was determined using a Bio-Rad IQ5 thermocycler. Genomic DNA (5 ng) was subjected to PCR reactions and detected with SYBR Green Super Mix (Bio-Rad). The primers for telomere length and HBG1 (a single copy gene) were as follows. Reaction conditions were: 1 cycle, 95° C., 5 minutes; 41 cycles, 95° C., 15 seconds,; 1 cycle, 60° C. for 45 seconds. All reactions were carried out in triplicate and compared to a standard curve of 0, 0.2, 1, 5, 25 and 125 ng genomic DNA (telomere length 10.4 kb) from Roche Telo-kit. The T/S ratio (dCt) for each sample was calculated by normalizing the average HBG Ct value to the average telomere Ct value.

[7] = system: HPV16; assay: HPV16 genome copy number in W12 cells; assay type: cell-based, human papillomavirus; settings: 10 μM Y-27632, FIG. 8
Procedure: as §2
as §1, with “DNA fragments were separated by agarose gel electrophoresis followed by Southern blot hybridization. A ^32P-labeled probe was synthesized from the isolated viral genomic DNA (purified from the vector sequence) by the random prime method and used in Southern hybridizations.” left out

[8] = system: hTERT mRNA; assay: Real time QRT-PCR of hTERT mRNA; assay type: cell-based, human
Procedure: Total cellular RNA was isolated with TRIZol™ reagent (Invitrogen, Carlsbad, Calif.) and treated with DNA-free kit (Ambion, Austin, Tex.). First-strand cDNA was synthesized from 8 μg of total cellular RNA using the Superscript III First-Strand Synthesis System (Invitrogen, Carlsbad, Calif.). RNase H-treated cDNA from 20 ng RNA was amplified by quantitative real time PCR using the Taqman Gene Expression Assay for hTERT (Assay ID: Hs00972646_m1, Applied Biosystems) spanning exons 14 and 15 and human RPLP0 (large ribosomal protein) endogenous control, VIC/MGB Probe, primer limited (Applied Biosystems). All samples were run in triplicate using the ABI 7900HT system and the amount of product was calculated with reference to standard curves generated by 4-fold serial dilutions of a mixed set of cDNAs with high telomerase expression. Values were adjusted relative to the level of RPO transcripts.

[9] = system: W12 cells (20863 clone); assay: Growth of CIN1-derived cell line W12; assay type: cell-based, human; settings: 10 μM Y-27632; 44 days; FIG. 7
Procedure: as §3

[10] = system: HPV31; assay: HPV DNA replication assay (Southern blot) in transfected primary keratinocytes, HPV31; assay type: cell-based, human papillomavirus; settings: 10 μM Y-27632; two and five days post-electroporation; FIG. 5
Procedure: as §1, with “A ^32P-labeled probe was synthesized from the isolated viral genomic DNA (purified from the vector sequence) by the random prime method and used in Southern hybridizations.” left out

[11] = system: keratinocytes; assay: Organotypic raft culture (differentiation, stratification); assay type: cell-based, human
Procedure: Organotypic cultures were generated as described previously with modifications. (Banerjee et al., Methods Mol. Med. 119: 187-202, 2005). Briefly, 1×10^5 keratinocytes were seeded onto a rat tail type 1 collagen dermal equivalent containing 1−2×10^6 J2 3T3 feeder cells. The rafts were lifted onto stainless steel grids and were fed by diffusion from below with raft medium [3:1 (v/v) DMEM-F-12 (Ham), 10% FBS, 0.4 μg/ml hydrocortisone, 0.1 nM cholera toxin, and 5 μg/ml transferring]. Raft cultures were allowed to stratify and differentiate for 11-17 days. The collagen-epithelial rafts were fixed in formalin for 4 hours, paraffin embedded, sectioned and stained with hematoxylin and eosin (H&E) or by immunofluorescence as described in Pei et al. (Methods Mol. Med. 119: 49-59, 2005). Monoclonal antibody against anti-keratin 14 (K14) (Ab-1) was from Thermo Fisher Scientific, Fremont, Calif. Goat polyclonal antiserum against Filaggrin (N-20) and rabbit polyclonal antiserum against involucrin (H-120) were from Santa Cruz Biotechnology.

CC(N)[C@H]1CC[C@H](C(=O)Nc2ccncc2)CC1 (single isomer, unassigned; (+)) [Y-27632, (+)-trans-N-(4-Pyridyl)-4-(1-aminoethyl)-cyclohexanecarboxamide]
efficiency of HPV replication ([1]; 10 μM Y-27632, two and five days post-electroporation, FIG. 5): greatly increased the efficiency of HPV replication up to five days | HPV18 replication, long-term assay ([1]; after day 10, FIG. 6): greater levels of replication in the absence of Y-27632 | HPV18 replication, long-term assay ([1]; at early times, FIGS. 5 and 6): greater in the presence of Y-27632 | HPV6 viral DNA levels, long-term assay ([2]; after three passes): the levels of viral DNA declined | efficiency of HPV6 replication, long-term assay ([2]; up to three passes): greatly increased the efficiency of replication and robust levels of viral DNA were present after three passes | HPV31 copy number [3]: remained constant | growth rate [4]: no differences in growth rate were observed | colony forming ability [5]: increase the colony forming ability | relative length of telomeres ([6]; passage 50 to 120): became stable | relative length of telomeres ([6]; with passage in Y-27632, FIG. 11B): became progressively shorter with passage | HPV16 copy number [7]: partially rescued the decline in copy number | level of hTERT mRNA versus HPV18-immortalized keratinocytes ([8]; by passage 34 in Y-27632): comparable to those in HPV18-immortalized keratinocytes | level of hTERT mRNA ([8]; foreskin keratinocytes with passage in Y-27632, FIG. 11A): increased with passage | growth rate [9]: no differences in growth rate were observed | efficiency of HPV replication [10]: greatly increased the efficiency of HPV replication up to five days | differentiation and stratification ([11]; 10 μM Y-27632 added to the organotypic raft culture medium): no differentiation or stratification were observed | formation of stratified epithelium ([11]; cells cultured in Y-27632 for 18 passages and late pass, raft media without Y-27632): could also produce a stratified epithelium in organotypic culture | expression of keratin 14, involucrin and filaggrin ([11]; raft tissue from Y-27632-treated cells, immunofluorescence): expressed these differentiation markers in the appropriate layer

— patent publication US8637310B2, “Use of a rock inhibitor to sustain primary human keratinocytes in a proliferative state” (The United States of America, as represented by the …, priority 2008, dated 2014)
